Data reported in patent US10030047B2 (Hoffmann-La Roche Inc., priority 2015, dated 2018).
In brackets after ≈: the same amount, converted by molar mass.

System: A. baumannii strain ATCC19606
Assay: Minimum inhibitory concentration (MIC) determination, microbroth dilution (CLSI)
Format: cell-based
Settings: Acinetobacter baumannii; A. baumannii ATCC19606; CAMHB; read after 20 hours; >=80% growth inhibition; read-out: ATCC19606 MIC
Outline: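 After 20 h at 35±2 °C, MIC taken visually and by OD 600 nm as the lowest concentration giving ≥80% growth inhibition. Bacteria (~5×10^5 CFU/ml) were tested per CLSI microbroth dilution against twofold serial compound dilutions in cation-adjusted Mueller Hinton broth.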

| MIC | SMILES |
| --- | --- |
| 1 µg/mL (≈ 1.29 µM) | CN1C(=O)[C@H](CCCCN)NC(=O)[C@H](CCCN)NCc2ncccc2Sc2c(Cl)ccc(C(F)(F)F)c2CNC(=O)[C@@H]1Cc1c[nH]c2ccccc12 [Example 111, (11S,14S,17S)-14-(4-Amino-butyl)-11-(3-amino-propyl)-25-chloro-17-(1H-indol-3-ylmethyl)-16-methyl-22-trifluoromethyl-2-thia-7,10,13,16,19-pentaaza-tricyclo[19.4.0.0*3,8*]pentacosa-1(25),3(8),4,6,21,23-hexaene-12,15,18-trione] |
| 1 µg/mL (≈ 1.28 µM) | CN1C(=O)[C@H](CCCCN)NC(=O)[C@H](CCCN)NCc2cccnc2Sc2c(Cl)cc(-c3ccccn3)cc2CNC(=O)[C@@H]1Cc1c[nH]c2ccccc12 [Example 150, (11S,14S,17S)-14-(4-Amino-butyl)-11-(3-amino-propyl)-25-chloro-17-(1H-indol-3-ylmethyl)-16-methyl-23-pyridin-2-yl-2-thia-4,10,13,16,19-pentaaza-tricyclo[19.4.0.0*3,8*]pentacosa-1(25),3(8),4,6,21,23-hexaene-12,15-18-trione] |
| 0.5 µg/mL (≈ 0.606 µM) | CN(C)c1ccc(-c2cc(Cl)c3c(c2)CNC(=O)[C@H](Cc2c[nH]c4ccccc24)N(C)C(=O)[C@H](CCCCN)NC(=O)[C@H](CCCN)NCc2cccnc2S3)cn1 [Example 166, (11S,14S,17S)-14-(4-Amino-butyl)-11-(3-amino-propyl)-25-chloro-23-(6-dimethylamino-pyridin-3-yl)-17-(1H-indol-3-ylmethyl)-16-methyl-2-thia-4,10,13,16,19-pentaaza-tricyclo[19.4.0.0*3,8*]pentacosa-1(25),3(8),4,6,21,23-hexaene-12,15,18-trione] |
| 0.12 µg/mL (≈ 0.153 µM) | CN1C(=O)[C@H](CCCCN)NC(=O)[C@H](CCCN)NCc2cccnc2Sc2c(Cl)ccc(-c3cccnc3)c2CNC(=O)[C@@H]1Cc1c[nH]c2ccccc12 [Example 191, (11S,14S,17S)-14-(4-Amino-butyl)-11-(3-amino-propyl)-25-chloro-17-(1H-indol-3-ylmethyl)-16-methyl-22-pyridin-3-yl-2-thia-4,10,13,16,19-pentaaza-tricyclo[19.4.0.0*3,8*]pentacosa-1(25),3(8),4,6,21,23-hexaene-12,15,18-trione] |
| 1 µg/mL (≈ 1.24 µM) | CN1C(=O)[C@H](CCCCN)NC(=O)[C@H](CCCN)NCc2cccnc2Sc2c(Cl)cc(-c3ccnc(C#N)c3)cc2CNC(=O)[C@@H]1Cc1c[nH]c2ccccc12 [Example 229, 4-[(11S,14S,17S)-14-(4-Amino-butyl)-11-(3-amino-propyl)-25-chloro-17-(1H-indol-3-ylmethyl)-16-methyl-12,15,18-trioxo-2-thia-4,10,13,16,19-pentaaza-tricyclo[19.4.0.0*3,8*]pentacosa-1(21),3,5,7,22,24-hexaen-23-yl]-pyridine-2-carbonitrile] |
| 0.25 µg/mL (≈ 0.314 µM) | Cc1[nH]c2ccccc2c1C[C@H]1C(=O)NCc2cc(-c3ccncc3)cc(Cl)c2Sc2ncccc2CN[C@@H](CCCN)C(=O)N[C@@H](CCCCN)C(=O)N1C [Example 181, (11S,14S,17S)-14-(4-Amino-butyl)-11-(3-amino-propyl)-25-chloro-16-methyl-17-(2-methyl-1H-indol-3-ylmethyl)-23-pyridin-4-yl-2-thia-4,10,13,16,19-pentaaza-tricyclo[19.4.0.0*3,8*]pentacosa-1(25),3(8),4,6,21,23-hexaene-12,15,18-trione] |
| 2 µg/mL (≈ 2.84 µM) | CN1C(=O)[C@H](CCCCN)NC(=O)[C@H](CCCN)NCc2ccccc2Sc2c(ccnc2Cl)CNC(=O)[C@@H]1Cc1c[nH]c2ccccc12 [Example 113, (12S,15S,18S)-15-(4-Amino-butyl)-18-(3-amino-propyl)-4-chloro-12-(1H-indol-3-ylmethyl)-13-methyl-2-thia-5,10,13,16,19-pentaaza-tricyclo[19.4.0.0*3,8*]pentacosa-1(25),3,5,7,21,23-hexaene-11,14,17-trione] |
| 4 µg/mL (≈ 5.71 µM) | COc1ccc2c(c1)CNC(=O)[C@H](Cc1c[nH]c3ccccc13)N(C)C(=O)[C@H](CCCCN)NC(=O)[C@H](CCCN)NCc1cccnc1S2 [Example 61, (11S,14S,17S)-14-(4-Amino-butyl)-11-(3-amino-propyl)-17-(1H-indol-3-ylmethyl)-23-methoxy-16-methyl-2-thia-4,10,13,16,19-pentaaza-tricyclo[19.4.0.0*3,8*]pentacosa-1(25),3,5,7,21,23-hexaene-12,15,18-trione] |
| 4 µg/mL (≈ 5.12 µM) | CN1C(=O)[C@H](CCCCN)NC(=O)[C@H](CCCN)NCc2ccccc2Sc2c(-c3ccccc3)ncc(Cl)c2CNC(=O)[C@@H]1Cc1c[nH]c2ccccc12 [Example 189] |
| 16 µg/mL (≈ 20.5 µM) | COc1cc(-c2cc3c(cn2)Sc2ncccc2CN[C@@H](CCCN)C(=O)N[C@@H](CCCCN)C(=O)N(C)[C@@H](Cc2c[nH]c4ccccc24)C(=O)NC3)ccn1 [Example 205, (7S,10S,13S)-13-((1H-Indol-3-yl)methyl)-10-(4-aminobutyl)-7-(3-aminopropyl)-18-(2-methoxypyridin-4-yl)-12-methyl-6,7,9,10,12,13,15,16-octahydrodipyrido[2,3-b:4′,3′-p][1,5,8,11,14]thiatetraazacycloheptadecine-8,11,14(5H)-trione] |

The remaining lines, values behind:

| SMILES | MIC |
| --- | --- |
| CN1C(=O)[C@H](CCCCN)NC(=O)[C@H](Cc2cncn2C)NCc2cccnc2Sc2c(Cl)cc(C(F)(F)F)cc2CNC(=O)[C@@H]1Cc1c[nH]c2ccccc12 [Example 85, (11S,14S,17S)-14-(4-Amino-butyl)-25-chloro-17-(1H-indol-3-ylmethyl)-16-methyl-11-(3-methyl-3H-imidazol-4-ylmethyl)-23-trifluoromethyl-2-thia-4,10,13,16,19-pentaaza-tricyclo[19.4.0.0*3,8*]pentacosa-1(25),3(8),4,6,21,23-hexaene-12,15,18-trione] | 0.5 µg/mL (≈ 0.617 µM) |
| CN1C(=O)[C@H](CCCCN)NC(=O)[C@H](CCCN)NCc2cccnc2Sc2c(Cl)cc(N3CC4CC3CO4)cc2CNC(=O)[C@@H]1Cc1c[nH]c2ccccc12 (stereo partly drawn) [Example 187, (11S,14S,17S)-14-(4-Amino-butyl)-11-(3-amino-propyl)-25-chloro-17-(1H-indol-3-ylmethyl)-16-methyl-23-(2-oxa-5-aza-bicyclo[2.2.1]hept-5-yl)-2-thia-4,10,13,16,19-pentaaza-tricyclo[19.4.0.0*3,8*]pentacosa-1(25),3(8),4,6,21,23-hexaene-12,15,18-trione] | 2 µg/mL (≈ 2.49 µM) |
| CN1C(=O)[C@H](CCCCN)NC(=O)[C@H](CCCN)NCc2ccccc2Sc2ccc(-c3ccccc3)cc2CNC(=O)[C@@H]1Cc1c[nH]c2ccccc12 [Example 69, (12S,15S,18S)-15-(4-Amino-butyl)-18-(3-amino-propyl)-12-(1H-indol-3-ylmethyl)-13-methyl-6-phenyl-2-thia-10,13,16,19-tetraaza-tricyclo[19.4.0.0*3,8*]pentacosa-1(25),3,5,7,21,23-hexaene-11,14,17-trione] | 4 µg/mL (≈ 5.36 µM) |
| CN1C(=O)[C@H](CCCCN)NC(=O)[C@H](CCCN)NCc2cc(F)ccc2Sc2c(Cl)cc(Cl)cc2CNC(=O)[C@@H]1Cc1c[nH]c2ccccc12 [Example 27, (12S,15S,18S)-15-(4-Amino-butyl)-18-(3-amino-propyl)-4,6-dichloro-23-fluoro-12-(1H-indol-3-ylmethyl)-13-methyl-2-thia-10,13,16,19-tetraaza-tricyclo[19.4.0.0*3,8*]pentacosa-1(25),3,5,7,21,23-hexaene-11,14,17-trione] | 2 µg/mL (≈ 2.64 µM) |
| CN1C(=O)[C@H](CCCCN)NC(=O)[C@H](CCCN)NCc2ccccc2Sc2cc(C(F)(F)F)ccc2CNC(=O)[C@@H]1Cc1c[nH]c2ccccc12 [Example 13, (12S,15S,18S)-15-(4-Amino-butyl)-18-(3-amino-propyl)-12-(1H-indol-3-ylmethyl)-13-methyl-5-trifluoromethyl-2-thia-10,13,16,19-tetraaza-tricyclo[19.4.0.0*3,8*]pentacosa-1(21),3,5,7,22,24-hexaene-11,14,17-trione] | 2 µg/mL (≈ 2.71 µM) |
| CN1C(=O)[C@H](CCCCN)NC(=O)[C@H](CCCN)NCc2ccccc2Sc2ccc(Cl)cc2CNC(=O)[C@@H]1Cc1cn(C)c2cc(Cl)ccc12 [Example 19, (12S,15S,18S)-15-(4-Amino-butyl)-18-(3-amino-propyl)-6-chloro-12-(6-chloro-1-methyl-1H-indol-3-ylmethyl)-13-methyl-2-thia-10,13,16,19-tetraaza-tricyclo[19.4.0.0*3,8*]pentacosa-1(21),3,5,7,22,24-hexaene-11,14,17-trione] | 16 µg/mL (≈ 21.3 µM) |
| CN1C(=O)[C@H](CCCCN)NC(=O)[C@H](Cc2cccc3ccccc23)NCc2cccnc2Sc2c(Cl)cc(Cl)cc2CNC(=O)[C@@H]1Cc1c[nH]c2ccccc12 [Example 114, (11S,14S,17S)-14-(4-Amino-butyl)-23,25-dichloro-17-(1H-indol-3-ylmethyl)-16-methyl-11-naphthalen-1-ylmethyl-2-2-thia-4,10,13,16,19-pentaaza-tricyclo[19.4.0.0*3,8*]pentacosa-1(25),3,5,7,21,23-hexaene-12,15,18-trione] | 32 µg/mL (≈ 38.9 µM) |
| Cc1noc(C)c1-c1cc(Cl)c2c(c1)CNC(=O)[C@H](Cc1c[nH]c3ccccc13)N(C)C(=O)[C@H](CCCCN)NC(=O)[C@H](CCC(N)=O)NCc1cccnc1S2 [Example 169, 3-[(11S,14S,17S)-14-(4-Amino-butyl)-25-chloro-23-(3,5-dimethyl-isoxazol-4-yl)-17-(1H-indol-3-ylmethyl)-16-methyl-12,15,18-trioxo-2-thia-4,10,13,16,19-pentaaza-tricyclo[19.4.0.0*3,8*]pentacosa-1(25),3(8),4,6,21,23-hexaen-11-yl]-propionamide] | 4 µg/mL (≈ 4.91 µM) |
| Cc1ccc2c(c1)CNC(=O)[C@H](Cc1c[nH]c3ccccc13)N(C)C(=O)[C@H](CCCCN)NC(=O)[C@H](CCCN)NCc1ccccc1S2 [Example 10, (12S,15S,18S)-15-(4-Amino-butyl)-18-(3-amino-propyl)-12-(1H-indol-3-ylmethyl)-6,13-dimethyl-2-thia-10,13,16,19-tetraaza-tricyclo[19.4.0.0*3,8*]pentacosa-1(21),3,5,7,22,24-hexaene-11,14,17-trione] | 2 µg/mL (≈ 2.92 µM) |
